Test results published in US12258327B2, “5-membered heteroaryl-containing aminopyridine compounds as EGFR inhibitors” (YUHAN CORPORATION, priority 2021, dated 2025).
Like-named read-outs stand apart in the source and are kept apart here.

Legend:
EGFR del19/T790M/C797S = EGFR del19/T790M/C797S (Homo sapiens, UniProt P00533, C797S/DEL746-750/T790M); experiment: Biochemical EGFR kinase assay (Lance Ultra TR-FRET), triple mutant del19/T790M/C797S
Outline: (§1)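 Kinase activity is measured by TR-FRET phosphopeptide detection. Compounds span 0.003 μM to 10 μM; the 1 h reaction at room temperature is quenched with EDTA, then labelled antibody (2 nM) is incubated 60 min before reading.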

EGFR L858R/T790M/C797S = EGFR L858R/T790M/C797S (Homo sapiens, UniProt P00533, C797S/L858R/T790M); experiment: Biochemical EGFR kinase assay (Lance Ultra TR-FRET), triple mutant L858R/T790M/C797S
Outline: as §1

EGFR L858R/C797S = EGFR L858R/C797S (Homo sapiens, UniProt P00533, C797S/L858R); experiment: Biochemical EGFR kinase assay (Lance Ultra TR-FRET), double mutant L858R/C797S
Outline: as §1

EGFR wildtype (WT) = EGFR wildtype (WT) (Homo sapiens, UniProt P00533); experiment: Biochemical EGFR kinase assay (Lance Ultra TR-FRET), wildtype
Outline: as §1

EGFR del19/C797S = EGFR del19/C797S (Homo sapiens, UniProt P00533, C797S/DEL746-750); experiment: Biochemical EGFR kinase assay (Lance Ultra TR-FRET), double mutant del19/C797S
Outline: as §1

[1] = Km ATP, read-out: IC50 del19/T790M/C797S (nM) Km ATP
[2] = Km ATP, read-out: IC50 L858R/T790M/C797S (nM) Km ATP
[3] = Km ATP, read-out: IC50 L858R/C797S (nM) Km ATP
[4] = Km ATP, read-out: IC50 WT (nM) Km ATP
[5] = Km ATP, read-out: IC50 del19/C797S (nM) Km ATP
[6] = IC50 del19/T790M/C797S (nM) 100 μM ATP, 100 μM ATP
[7] = IC50 L858R/T790M/C797S (nM) 100 μM ATP, 100 μM ATP
[8] = IC50 L858R/C797S (nM) 100 μM ATP, 100 μM ATP
[9] = IC50 WT (nM) 100 μM ATP, 100 μM ATP
[10] = IC50 del19/C797S (nM) 100 μM ATP, 100 μM ATP
[11] = Km ATP, read-out: IC50 del19/T790M/C797S, Km ATP
[12] = Km ATP, read-out: IC50 L858R/T790M/C797S, Km ATP
[13] = Km ATP, read-out: IC50 L858R/C797S, Km ATP
[14] = Km ATP, read-out: IC50 WT, Km ATP
[15] = Km ATP, read-out: IC50 del19/C797S, Km ATP

Sequence of EGFR del19/T790M/C797S (P00533 with tags, fused parts or gaps DEL746-750/T790M/C797S): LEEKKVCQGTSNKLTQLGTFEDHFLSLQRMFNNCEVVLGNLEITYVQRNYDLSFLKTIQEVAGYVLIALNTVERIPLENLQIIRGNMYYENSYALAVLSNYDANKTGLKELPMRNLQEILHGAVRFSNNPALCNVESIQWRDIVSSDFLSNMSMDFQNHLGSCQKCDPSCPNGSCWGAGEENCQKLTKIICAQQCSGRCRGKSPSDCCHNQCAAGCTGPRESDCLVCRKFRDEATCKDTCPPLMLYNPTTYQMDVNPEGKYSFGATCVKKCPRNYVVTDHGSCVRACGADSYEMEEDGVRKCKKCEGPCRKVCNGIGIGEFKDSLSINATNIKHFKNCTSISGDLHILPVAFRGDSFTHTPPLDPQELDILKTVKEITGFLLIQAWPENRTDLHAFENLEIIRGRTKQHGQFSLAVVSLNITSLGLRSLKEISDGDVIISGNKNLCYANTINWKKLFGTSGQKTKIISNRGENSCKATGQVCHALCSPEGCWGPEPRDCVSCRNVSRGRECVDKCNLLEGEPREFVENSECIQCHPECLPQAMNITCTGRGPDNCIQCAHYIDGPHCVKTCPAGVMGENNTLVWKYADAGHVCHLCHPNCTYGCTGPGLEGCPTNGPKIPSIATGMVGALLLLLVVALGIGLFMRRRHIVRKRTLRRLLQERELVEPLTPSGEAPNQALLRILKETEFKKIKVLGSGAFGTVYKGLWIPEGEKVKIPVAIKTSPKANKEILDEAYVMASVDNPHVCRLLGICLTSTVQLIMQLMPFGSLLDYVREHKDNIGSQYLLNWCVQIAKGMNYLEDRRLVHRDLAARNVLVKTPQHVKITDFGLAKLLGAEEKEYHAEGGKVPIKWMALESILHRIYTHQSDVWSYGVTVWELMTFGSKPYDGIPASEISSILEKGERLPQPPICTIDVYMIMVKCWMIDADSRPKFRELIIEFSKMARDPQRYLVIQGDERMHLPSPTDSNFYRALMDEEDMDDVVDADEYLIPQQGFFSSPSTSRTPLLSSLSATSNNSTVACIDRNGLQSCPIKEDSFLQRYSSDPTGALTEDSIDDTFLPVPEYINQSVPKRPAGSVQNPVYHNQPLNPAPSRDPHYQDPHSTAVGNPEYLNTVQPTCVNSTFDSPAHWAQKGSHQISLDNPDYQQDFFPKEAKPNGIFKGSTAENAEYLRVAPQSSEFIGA
Sequence of EGFR L858R/T790M/C797S (P00533 25-1210 T790M/C797S/L858R): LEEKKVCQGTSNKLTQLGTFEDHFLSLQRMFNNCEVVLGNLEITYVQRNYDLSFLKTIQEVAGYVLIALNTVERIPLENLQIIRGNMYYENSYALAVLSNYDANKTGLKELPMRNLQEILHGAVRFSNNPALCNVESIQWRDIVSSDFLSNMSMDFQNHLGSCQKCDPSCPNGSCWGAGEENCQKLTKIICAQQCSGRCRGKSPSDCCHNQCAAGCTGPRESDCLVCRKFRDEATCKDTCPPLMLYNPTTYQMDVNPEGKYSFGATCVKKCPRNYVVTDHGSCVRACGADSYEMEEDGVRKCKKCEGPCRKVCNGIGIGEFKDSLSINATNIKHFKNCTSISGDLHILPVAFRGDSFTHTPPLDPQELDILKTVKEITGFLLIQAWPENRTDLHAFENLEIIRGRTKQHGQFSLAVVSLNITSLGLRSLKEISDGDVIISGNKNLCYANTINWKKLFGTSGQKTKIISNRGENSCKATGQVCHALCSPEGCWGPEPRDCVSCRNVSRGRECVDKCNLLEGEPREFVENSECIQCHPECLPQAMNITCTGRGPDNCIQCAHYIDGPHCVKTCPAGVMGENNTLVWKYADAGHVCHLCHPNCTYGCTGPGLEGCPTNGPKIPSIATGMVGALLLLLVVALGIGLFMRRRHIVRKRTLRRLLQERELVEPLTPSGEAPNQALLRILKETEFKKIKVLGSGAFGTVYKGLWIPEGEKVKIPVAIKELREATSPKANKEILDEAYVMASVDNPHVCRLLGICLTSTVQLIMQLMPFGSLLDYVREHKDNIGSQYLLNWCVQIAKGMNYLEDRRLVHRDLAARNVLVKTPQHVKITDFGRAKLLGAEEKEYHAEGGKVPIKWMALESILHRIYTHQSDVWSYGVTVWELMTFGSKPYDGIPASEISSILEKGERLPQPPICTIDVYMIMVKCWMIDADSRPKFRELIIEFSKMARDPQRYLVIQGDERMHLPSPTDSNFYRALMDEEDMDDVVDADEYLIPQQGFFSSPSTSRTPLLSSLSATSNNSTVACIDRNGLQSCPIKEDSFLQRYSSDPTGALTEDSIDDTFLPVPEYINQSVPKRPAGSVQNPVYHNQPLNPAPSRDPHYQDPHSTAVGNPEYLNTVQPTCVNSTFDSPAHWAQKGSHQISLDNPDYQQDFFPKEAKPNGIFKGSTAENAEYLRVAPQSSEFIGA
Sequence of EGFR L858R/C797S (P00533 25-1210 C797S/L858R): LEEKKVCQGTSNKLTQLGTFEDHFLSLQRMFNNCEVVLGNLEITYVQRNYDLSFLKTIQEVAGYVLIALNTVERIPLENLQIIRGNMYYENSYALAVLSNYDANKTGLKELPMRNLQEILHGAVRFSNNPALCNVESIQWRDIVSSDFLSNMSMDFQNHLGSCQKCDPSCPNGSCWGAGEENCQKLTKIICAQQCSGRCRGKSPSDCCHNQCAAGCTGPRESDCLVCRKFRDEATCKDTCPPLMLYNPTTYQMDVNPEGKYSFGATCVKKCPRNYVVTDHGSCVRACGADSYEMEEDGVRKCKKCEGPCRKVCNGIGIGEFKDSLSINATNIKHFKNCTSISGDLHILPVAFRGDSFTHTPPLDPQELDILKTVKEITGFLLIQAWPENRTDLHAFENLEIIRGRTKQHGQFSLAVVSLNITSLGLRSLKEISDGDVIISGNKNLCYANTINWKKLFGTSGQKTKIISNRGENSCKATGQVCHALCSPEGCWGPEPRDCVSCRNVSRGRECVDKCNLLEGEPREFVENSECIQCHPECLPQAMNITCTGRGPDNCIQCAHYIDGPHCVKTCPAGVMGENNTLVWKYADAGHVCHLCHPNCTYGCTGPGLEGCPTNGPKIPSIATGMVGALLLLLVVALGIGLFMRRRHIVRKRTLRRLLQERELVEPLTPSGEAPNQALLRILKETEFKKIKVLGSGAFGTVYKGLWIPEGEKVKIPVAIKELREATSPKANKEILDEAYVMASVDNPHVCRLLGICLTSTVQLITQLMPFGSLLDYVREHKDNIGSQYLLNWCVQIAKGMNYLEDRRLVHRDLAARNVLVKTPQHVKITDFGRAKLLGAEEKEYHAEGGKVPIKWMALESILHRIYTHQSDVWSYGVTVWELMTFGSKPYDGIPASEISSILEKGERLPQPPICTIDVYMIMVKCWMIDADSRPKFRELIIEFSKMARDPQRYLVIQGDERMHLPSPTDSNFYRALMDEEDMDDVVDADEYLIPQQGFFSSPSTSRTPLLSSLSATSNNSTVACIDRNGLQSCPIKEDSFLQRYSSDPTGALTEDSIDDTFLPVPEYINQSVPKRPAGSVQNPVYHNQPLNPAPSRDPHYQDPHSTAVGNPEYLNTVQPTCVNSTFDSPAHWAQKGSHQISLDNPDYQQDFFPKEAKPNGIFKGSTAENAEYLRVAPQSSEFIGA
Sequence of EGFR del19/C797S (P00533 with tags, fused parts or gaps DEL746-750/C797S): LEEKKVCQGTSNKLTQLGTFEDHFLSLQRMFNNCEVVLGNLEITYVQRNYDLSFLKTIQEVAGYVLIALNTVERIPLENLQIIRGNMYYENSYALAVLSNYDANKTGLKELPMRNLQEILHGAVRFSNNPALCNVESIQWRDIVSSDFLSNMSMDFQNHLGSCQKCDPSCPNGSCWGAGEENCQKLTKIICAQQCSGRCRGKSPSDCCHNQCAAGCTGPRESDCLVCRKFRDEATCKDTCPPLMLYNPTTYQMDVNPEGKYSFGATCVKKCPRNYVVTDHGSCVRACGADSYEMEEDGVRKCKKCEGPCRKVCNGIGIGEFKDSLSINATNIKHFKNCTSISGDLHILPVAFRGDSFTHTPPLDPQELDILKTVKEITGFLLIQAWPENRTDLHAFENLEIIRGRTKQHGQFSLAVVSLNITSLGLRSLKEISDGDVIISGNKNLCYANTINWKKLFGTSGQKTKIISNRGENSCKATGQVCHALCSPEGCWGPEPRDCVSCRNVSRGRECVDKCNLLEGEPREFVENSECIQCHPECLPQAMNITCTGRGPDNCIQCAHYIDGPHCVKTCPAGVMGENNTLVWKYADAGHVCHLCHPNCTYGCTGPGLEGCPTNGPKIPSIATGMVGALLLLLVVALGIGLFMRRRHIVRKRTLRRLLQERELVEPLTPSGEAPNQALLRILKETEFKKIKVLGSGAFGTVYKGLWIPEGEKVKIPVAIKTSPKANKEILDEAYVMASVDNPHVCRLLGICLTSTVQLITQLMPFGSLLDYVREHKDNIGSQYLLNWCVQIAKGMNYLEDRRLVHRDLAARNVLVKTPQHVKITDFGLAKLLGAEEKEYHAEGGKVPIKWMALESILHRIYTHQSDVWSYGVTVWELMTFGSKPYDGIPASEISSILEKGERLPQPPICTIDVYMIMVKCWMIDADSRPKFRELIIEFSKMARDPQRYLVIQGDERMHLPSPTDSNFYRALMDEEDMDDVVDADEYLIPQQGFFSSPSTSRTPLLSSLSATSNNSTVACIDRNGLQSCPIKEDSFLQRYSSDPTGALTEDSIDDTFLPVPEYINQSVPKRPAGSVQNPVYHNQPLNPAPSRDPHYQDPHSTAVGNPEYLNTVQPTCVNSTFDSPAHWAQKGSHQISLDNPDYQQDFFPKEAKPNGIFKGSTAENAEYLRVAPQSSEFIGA

IC50 (EGFR del19/T790M/C797S; [1]) | IC50 (EGFR L858R/T790M/C797S; [2]) | IC50 (EGFR L858R/C797S; [3]) | IC50 (EGFR wildtype (WT); [4]) | IC50 (EGFR del19/C797S; [5]) | IC50 (EGFR del19/T790M/C797S; [6]) | IC50 (EGFR L858R/T790M/C797S; [7]) | IC50 (EGFR L858R/C797S; [8]) | IC50 (EGFR wildtype (WT); [9]) | IC50 (EGFR del19/C797S; [10]) | IC50 (EGFR del19/T790M/C797S; [11]) | IC50 (EGFR L858R/T790M/C797S; [12]) | IC50 (EGFR L858R/C797S; [13]) | IC50 (EGFR wildtype (WT); [14]) | IC50 (EGFR del19/C797S; [15]) | SMILES
0.4 nM | 0.2 nM | 2.8 nM | 6.5 nM | 1.7 nM |  |  |  |  |  |  |  |  |  |  | O=S(=O)(C1CC1)n1cc(-c2ncc(F)c(Nc3cc(N[C@H]4CC[C@@H](CN5CCC5)CC4)c(-c4ccn(C(F)F)n4)cn3)n2)cn1 [Example 327, N^4-((1s,4s)-4-(Azetidin-1-ylmethyl)cyclohexyl)-N^2-(2-(1-(cyclopropylsulfonyl)-1H-pyrazol-4-yl)-5-fluoropyrimidin-4-yl)-5-(1-(difluoromethyl)-1H-pyrazol-3-yl)pyridine-2,4-diamine]
4.8 nM | 2 nM | 19.5 nM | 110 nM | 9.3 nM | 8 nM | 6.5 nM | 378 nM | > 10000 nM | 11.5 nM |  |  |  |  |  | Cn1nc(-c2cnc(Nc3nc(-c4cnn(S(=O)(=O)C5CC5)c4)ncc3F)cc2N[C@H]2CC[C@@](C)(O)CC2)cc1C(F)(F)F [Example 328, (1s,4s)-4-((2-((2-(1-(Cyclopropylsulfonyl)-1H-pyrazol-4-yl)-5-fluoropyrimidin-4-yl)amino)-5-(1-methyl-5-(trifluoromethyl)-1H-pyrazol-3-yl)pyridin-4-yl)amino)-1-methylcyclohexan-1-ol]
2.5 nM | 1.2 nM | 75 nM | 288 nM | 24.6 nM | 6.5 nM | 4.1 nM | 1140 nM | > 10000 nM | 37.1 nM |  |  |  |  |  | Cn1nc(-c2cnc(Nc3ccnc(-c4cnn(CC(F)(F)F)c4)n3)cc2N[C@H]2CC[C@@](C)(O)CC2)cc1C(F)(F)F [Example 329, (1s,4s)-1-Methyl-4-((5-(1-methyl-5-(trifluoromethyl)-1H-pyrazol-3-yl)-2-((2-(1-(2,2,2-trifluoroethyl)-1H-pyrazol-4-yl)pyrimidin-4-yl)amino)pyridin-4-yl)amino)cyclohexan-1-ol]
2.6 nM | 1.1 nM | 1.6 nM | 65.3 nM | 15.7 nM | 2.2 nM | 3.9 nM | 63.3 nM | > 10000 nM | 35.1 nM |  |  |  |  |  | CN(C)S(=O)(=O)n1cc(-c2nccc(Nc3cc(N[C@H]4CC[C@@](C)(O)CC4)c(-c4cc(C(F)(F)F)n(C)n4)cn3)n2)cn1 [Example 330, 4-(4-((4-(((1s,4s)-4-Hydroxy-4-methylcyclohexyl)amino)-5-(1-methyl-5-(trifluoromethyl)-1H-pyrazol-3-yl)pyridin-2-yl)amino)pyrimidin-2-yl)-N,N-dimethyl-1H-pyrazole-1-sulfonamide]
 |  |  |  |  |  |  |  |  |  | 2.3 nM | 2.6 nM | 6.8 nM | 142 nM | 11.9 nM | Cn1nc(-c2cnc(Nc3ccnc(-c4cnn(CC(F)F)c4)n3)cc2N[C@H]2CC[C@@](C)(O)CC2)cc1C(F)(F)F [Example 331, (1s,4s)-4-((2-((2-(1-(2,2-Difluoroethyl)-1H-pyrazol-4-yl)pyrimidin-4-yl)amino)-5-(1-methyl-5-(trifluoromethyl)-1H-pyrazol-3-yl)pyridin-4-yl)amino)-1-methylcyclohexan-1-ol]
 |  |  |  |  |  |  |  |  |  | 5.9 nM | 3.2 nM | 6 nM | 98 nM | 10.1 nM | Cc1nn(CC(F)(F)F)cc1-c1nccc(Nc2cc(N[C@H]3CC[C@@](C)(O)CC3)c(-c3cc(C(F)(F)F)n(C)n3)cn2)n1 [Example 332, (1s,4s)-1-Methyl-4-((2-((2-(3-methyl-1-(2,2,2-trifluoroethyl)-1H-pyrazol-4-yl)pyrimidin-4-yl)amino)-5-(1-methyl-5-(trifluoromethyl)-1H-pyrazol-3-yl)pyridin-4-yl)amino)cyclohexan-1-ol]
 |  |  |  |  |  |  |  |  |  | 4.2 nM | 2.8 nM | 17.1 nM | 24.6 nM | 41.2 nM | Cc1nn(CC(F)(F)F)cc1-c1nccc(Nc2cc(N[C@H]3CC[C@@H](CCO)CC3)c(-c3cc(C(F)(F)F)n(C)n3)cn2)n1 [Example 334, 2-((1s,4s)-4-((2-((2-(3-Methyl-1-(2,2,2-trifluoroethyl)-1H-pyrazol-4-yl)pyrimidin-4-yl)amino)-5-(1-methyl-5-(trifluoromethyl)-1H-pyrazol-3-yl)pyridin-4-yl)amino)cyclohexyl)ethan-1-ol]
 |  |  |  |  |  |  |  |  |  | 1.6 nM | 0.7 nM | 4.6 nM | 98.8 nM | 7.9 nM | Cc1nn(CC(F)(F)F)cc1-c1nccc(Nc2cc(N[C@H]3CC[C@@](C)(O)CC3)c(-c3ccn(CC(F)F)n3)cn2)n1 [Example 335, (1s,4s)-4-((5-(1-(2,2-Difluoroethyl)-1H-pyrazol-3-yl)-2-((2-(3-methyl-1-(2,2,2-trifluoroethyl)-1H-pyrazol-4-yl)pyrimidin-4-yl)amino)pyridin-4-yl)amino)-1-methylcyclohexan-1-ol]
 |  |  |  |  |  |  |  |  |  | 1 nM | 1.1 nM | 20.5 nM | 2550 nM | 37.3 nM | O=S(=O)(C1CC1)n1cc(-c2ncc(F)c(Nc3cc(N[C@H]4CC[C@@H](CCO)CC4)c(-c4ccn(CC(F)F)n4)cn3)n2)cn1 [Example 336, 2-((1s,4s)-4-((2-((2-(1-(Cyclopropylsulfonyl)-1H-pyrazol-4-yl)-5-fluoropyrimidin-4-yl)amino)-5-(1-(2,2-difluoroethyl)-1H-pyrazol-3-yl)pyridin-4-yl)amino)cyclohexyl)ethan-1-ol]
 |  |  |  |  |  |  |  |  |  | 0.8 nM | 0.5 nM | 3.7 nM | 9 nM | 6.1 nM | Cc1nn(CC(F)(F)F)cc1-c1nccc(Nc2cc(N[C@H]3CC[C@@H](CCO)CC3)c(-c3ccn(CC(F)F)n3)cn2)n1 [Example 337, 2-((1s,4s)-4-((5-(1-(2,2-Difluoroethyl)-1H-pyrazol-3-yl)-2-((2-(3-methyl-1-(2,2,2-trifluoroethyl)-1H-pyrazol-4-yl)pyrimidin-4-yl)amino)pyridin-4-yl)amino)cyclohexyl)ethan-1-ol]
 |  |  |  |  |  |  |  |  |  | 0.7 nM | 0.4 nM | 3.9 nM | 45.1 nM | 13.2 nM | OCC[C@H]1CC[C@@H](Nc2cc(Nc3ccnc(-c4cnn(CC(F)F)c4)n3)ncc2-c2ccn(CC(F)(F)F)n2)CC1 [Example 338, 2-((1s,4s)-4-((2-((2-(1-(2,2-Difluoroethyl)-1H-pyrazol-4-yl)pyrimidin-4-yl)amino)-5-(1-(2,2,2-trifluoroethyl)-1H-pyrazol-3-yl)pyridin-4-yl)amino)cyclohexyl)ethan-1-ol]
 |  |  |  |  |  |  |  |  |  | 2.9 nM | 0.4 nM | 113 nM | 424 nM | 1070 nM | FC(F)Cn1cc(-c2nccc(Nc3cc(N[C@H]4CC[C@@H](F)CC4)c(-c4ccn(CC(F)(F)F)n4)cn3)n2)cn1 [Example 339, N^2-(2-(1-(2,2-Difluoroethyl)-1H-pyrazol-4-yl)pyrimidin-4-yl)-N^4-((1s,4s)-4-fluorocyclohexyl)-5-(1-(2,2,2-trifluoroethyl)-1H-pyrazol-3-yl)pyridine-2,4-diamine]
 |  |  |  |  |  |  |  |  |  | 0.5 nM | 0.3 nM | 6.7 nM | 173 nM | 21.4 nM | C[C@]1(O)CC[C@@H](Nc2cc(Nc3ccnc(-c4cnn(CC(F)F)c4)n3)ncc2-c2ccn(C(F)(F)F)n2)CC1 [Example 340, (1s,4s)-4-((2-((2-(1-(2,2-Difluoroethyl)-1H-pyrazol-4-yl)pyrimidin-4-yl)amino)-5-(1-(trifluoromethyl)-1H-pyrazol-3-yl)pyridin-4-yl)amino)-1-methylcyclohexan-1-ol]
 |  |  |  |  |  |  |  |  |  | 0.2 nM | 0.1 nM | 1.3 nM | 2.7 nM | 1.8 nM | CN1CCC(n2ccc(-c3cnc(Nc4ccnc(-c5cnn(CC(F)F)c5)n4)cc3N[C@H]3CC[C@@](C)(O)CC3)n2)CC1 [Example 342, (1s,4s)-4-((2-((2-(1-(2,2-Difluoroethyl)-1H-pyrazol-4-yl)pyrimidin-4-yl)amino)-5-(1-(1-methylpiperidin-4-yl)-1H-pyrazol-3-yl)pyridin-4-yl)amino)-1-methylcyclohexan-1-ol]
 |  |  |  |  |  |  |  |  |  | 0.1 nM | 0.2 nM | 0.3 nM | 35.3 nM | 4.7 nM | C[C@]1(O)CC[C@@H](Nc2cc(Nc3ccnc(-c4cnn(CC(F)F)c4)n3)ncc2-c2ccn(CC(F)F)n2)CC1 [Example 343, (1s,4s)-4-((5-(1-(2,2-Difluoroethyl)-1H-pyrazol-3-yl)-2-((2-(1-(2,2-difluoroethyl)-1H-pyrazol-4-yl)pyrimidin-4-yl)amino)pyridin-4-yl)amino)-1-methylcyclohexan-1-ol]
